Data: article PMC4521925, “17β-Hydroxysteroid Dehydrogenase Type 2 Inhibition: Discovery of Selective and Metabolically Stable Compounds Inhibiting Both the Human Enzyme and Its Murine Ortholog” (PLoS ONE, 2015)

How the values were obtained:
m17β-HSD1 = molecular target: T1, m17β-HSD1 (Mus musculus, UniProt P51656); test: Inhibition of m17β-HSD1 in cell-free assay; assay type: biochemical; conditions: recombinant m17β-HSD1, substrate E1 [500 nM], NADPH [500 μM]
T1 construct: host or cells: HEK 293 cells, transient transfection, 1000 g supernatant of the lysate
T1 sequence (P51656 1-344): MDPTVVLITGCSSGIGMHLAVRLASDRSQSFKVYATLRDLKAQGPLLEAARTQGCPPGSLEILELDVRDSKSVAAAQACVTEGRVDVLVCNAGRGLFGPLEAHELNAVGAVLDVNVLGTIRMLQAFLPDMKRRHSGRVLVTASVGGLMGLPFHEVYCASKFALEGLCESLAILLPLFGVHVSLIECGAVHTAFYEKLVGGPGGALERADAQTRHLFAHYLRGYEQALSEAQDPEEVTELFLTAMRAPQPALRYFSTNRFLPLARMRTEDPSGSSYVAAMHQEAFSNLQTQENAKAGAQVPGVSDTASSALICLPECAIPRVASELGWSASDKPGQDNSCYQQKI
Protocol: h17β-HSD2, h17β-HSD1, m17β-HSD2 and m17β-HSD1 cell-free assays were performed similarly, by incubating enzyme, tritiated substrate, cofactor and inhibitor, according to described procedures.
Recombinant m17β-HSD1 enzyme was produced by transfection of HEK 293 cells with a m17β-HSD1 expression plasmid (coding sequence of NM_010475 in pCMV6Entry vector, OriGene Technologies, Inc.) according to a described procedure. 48 hours after transfection cells were homogenized by sonication (3 x 10 s) in a buffer containing saccharose (40 mMTris, 250 mM saccharose, 5 mM EDTA, 7 mM DTT, 1 mM PMSF, pH 7,5). Cell lysate was centrifuged (1000 g, 15 min, 4°C) and 20% glycerol was added to the supernatant before aliquots were frozen and stored at -70°C.
The 17β-HSD1 inhibition assay was performed similarly to the h17β-HSD2 test. The human cytosolic enzyme was incubated with NADH [500 μM] while the mouse recombinant enzyme was reacted with NADPH [500 μM].Test compound and a mixture of unlabelled- and [^3H]-E1 (final concentration: 500 nM, 0.15 μCi) were added and mixed for 10 min at 37°C. Further treatment of the samples and HPLC separation was carried out as mentioned above for h17β-HSD2.

ERα = molecular target: T2, ERα (Homo sapiens, UniProt P03372); test: Estrogen receptor affinity in a cell-free assay (ERα); assay type: binding; conditions: 1000-fold excess relative to E2; recombinant human ERα
T2 sequence (P03372 1-595): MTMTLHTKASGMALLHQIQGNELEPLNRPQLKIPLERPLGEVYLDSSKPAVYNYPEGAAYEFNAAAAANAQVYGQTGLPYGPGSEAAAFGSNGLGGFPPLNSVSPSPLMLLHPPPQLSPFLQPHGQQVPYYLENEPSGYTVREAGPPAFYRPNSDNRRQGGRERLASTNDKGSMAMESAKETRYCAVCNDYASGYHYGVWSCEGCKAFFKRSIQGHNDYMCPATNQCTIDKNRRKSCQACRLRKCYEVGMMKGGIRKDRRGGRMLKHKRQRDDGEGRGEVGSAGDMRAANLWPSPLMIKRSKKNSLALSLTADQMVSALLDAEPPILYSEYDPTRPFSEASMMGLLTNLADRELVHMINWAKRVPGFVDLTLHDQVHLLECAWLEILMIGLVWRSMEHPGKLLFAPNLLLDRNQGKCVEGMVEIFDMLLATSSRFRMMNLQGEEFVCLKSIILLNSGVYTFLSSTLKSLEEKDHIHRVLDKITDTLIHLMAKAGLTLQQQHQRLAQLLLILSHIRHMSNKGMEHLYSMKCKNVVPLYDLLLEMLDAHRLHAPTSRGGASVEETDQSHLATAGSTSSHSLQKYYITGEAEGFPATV
Protocol: The binding affinity of selected compounds to ERα and ERβ was determined according to the recommendations of the US Environmental Protection Agency (EPA) by their Endocrine Disruptor Screening Program (EDSP)[24] using recombinant human proteins.
The potential inhibitors were dissolved in DMSO (5% final concentration). […] After incubation, ligand-receptor complexes were selectively bound to hydroxyapatite (83.5 g/LinTE-buffer). The bound complex was washed three times and resuspended in ethanol. For radiodetection, scintillator cocktail (Quickszint 212, Zinsser Analytic, Frankfurt) was added and samples were measured in a liquid scintillation counter (1450 LSC & Luminescence Counter, Perkin Elmer).
After the assay was established and validated, a modification was made to increase throughput.

[1] = Metabolic stability in a cell-free assay (liver S9 fraction); assay type: in vitro ADME; conditions: human liver S9 fraction 1 mg/ml, NADPH regenerating system, UDPGA, PAPS, 37°C, inhibitor 1 μM; for half-life at 1 μM: pooled liver S9 fraction, read-out: Inhibitor t1/2
Protocol: Compounds 7a, 8a, 16a, 19a, 22a, 27a and 27 were tested according to established method[33–35]For evaluation of phase I and II metabolic stability 1 μM compound was incubated with 1 mg/ml pooled mammalian liver S9 fraction (BD Gentest), 2 mM NADPH regenerating system, 1 mM UDPGA and 0.1 mM PAPS at 37°C for 0, 5, 15 and 60 minutes at a final volume of 100 μL. The incubation was stopped by precipitation of S9 enzymes with 2 volumes of cold acetonitrile containing internal standard. Concentration of the remaining test compound at the different time points was analyzed by LC-MS/MS and used to determine half-life (t1/2).

Structure (SMILES)	inhibition of m17β-HSD1 at 1 μM (m17β-HSD1)	displacement of E2 from ERα (ERα) [%]	Inhibitor t1/2 [1]	half-life at 1 μM [1] [h]
Cc1cccc(N(C)C(=O)c2ccc(-c3cccc(C)c3F)cc2)c1 [Compound 21a, 2'-Fluoro-N,3'-dimethyl-N-(m-tolyl)-[1,1'-biphenyl]-4-carboxamide]	None of the tested compounds showed any inhibition	≤ 20		
Cc1cccc(-c2ccc(C(=O)N(C)Cc3cccc(O)c3)cc2)c1F [Compound 25, 2'-Fluoro-N-(3-hydroxybenzyl)-N,3'-dimethyl-[1,1'-biphenyl]-4-carboxamide]	None of the tested compounds showed any inhibition	≤ 20	short half-life	0.1
COc1cccc(N(C)C(=O)c2ccc(-c3ccc(C)c(C)c3)cc2)c1 [Compound 17a, N-(3-methoxyphenyl)-N,3',4'-trimethyl-[1,1'-biphenyl]-4-carboxamide]	None of the tested compounds showed any inhibition	≤ 20		1.78
COc1cccc(N(C)C(=O)c2ccc(-c3cccc(C)c3)cc2)c1 [Compound 6a, N-(3-methoxyphenyl)-N,3'-dimethyl-[1,1'-biphenyl]-4-carboxamide]		≤ 20		1.77
